This note sets out measurements from patent US10328075B2, “Method of treatment and compounds for use therein” (Baker Heart and Diabetes Institute, priority 2015, dated 2019).

Entries after “also recorded” stand apart in the source; their conditions may differ.

Data set [1] has as its target T1, hFPR1 (Homo sapiens, UniProt P21462).
T1 construct: expressed in transfected cells
T1 sequence (P21462 1-350): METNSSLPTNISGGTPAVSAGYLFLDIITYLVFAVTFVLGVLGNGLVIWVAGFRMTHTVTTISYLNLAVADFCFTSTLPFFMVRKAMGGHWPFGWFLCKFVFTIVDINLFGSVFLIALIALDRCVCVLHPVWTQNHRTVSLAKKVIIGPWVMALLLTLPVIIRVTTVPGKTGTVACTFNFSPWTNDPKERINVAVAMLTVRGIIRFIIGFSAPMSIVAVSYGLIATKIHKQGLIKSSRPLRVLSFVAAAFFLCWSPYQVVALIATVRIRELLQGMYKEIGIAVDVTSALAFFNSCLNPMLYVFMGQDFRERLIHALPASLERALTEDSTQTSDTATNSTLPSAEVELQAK
The experiment in a line: ERK1/2 phosphorylation (AlphaScreen SureFire) in hFPR1-FlpIn-CHO cells. The data set is classed as cell-based. From the text:
(§1) cDNDA construct and generation of stable cell lines: cDNA in pcDNA3.1^+ encoding the human formyl peptide receptors (FPR) subtypes, hFPR1, hFPR2 and hFPR3 was obtained from Invitrogen. The sequences for 3 hFPR receptors were amplified by PCR and cloned into the Gateway entry vector, pDONR202™, using the BP clonase enzyme mix, according to the manufactures' instructions (Invitrogen Inc, Carlsbad, Calif., USA). All hFPR receptors constructs in pDONR201™ were subsequently transfected into the pEF5/FRT/V5/dest vector using the LR clonase enzyme mix (Invitrogen). Receptor constructs (pEF5/FRT/V5/dest) were used to transfect FIp-In CHO cells as described previously (Valant C et al., PNAS, 2014). Cells were selected using 500 μg/mL hydromycin to generate cell lines stably expressing each receptor construct. Cells were maintained and cultured in high glucose DMEM supplemented with 10% FBS, 16 mM HEPES and 500 μg/mL hydromycin at 37° C. under a humidified atmosphere containing 5% CO2.
(§2) In the various assays described below, cells were plated into 96-well transparent cell culture plates at 4×10^4 cells per well, cultured overnight in serum-free media at 37° C. in 5% CO2.
(§3) Measurement of extracellular signal regulated kinase 1 and 2 phosphorylation (pERK1/2): Initial ERK1/2 phosphorylation at Thr202/Tyr204 time-course experiments were performed to determine the time at which ERK1/2 phosphorylation was maximal after stimulation by each agonist. Cells were seeded onto transparent 96-well cell culture plates at 4×10^4 cells per well. After 6 h, cells were washed once with PBS, and then incubated in serum-free DMEM overnight, to allow FBS-stimulated phosphorylated ERK1/2 levels to subside. […] 10% (v/v) FBS was used as a positive control, with vehicle controls also included. The reaction was terminated by removal of study drugs and lysis of cells with 100 μL of SureFire lysis buffer (TGR Biosciences). Cell were lysed in SureFire lysis buffer and transferred to 384-well opaque proxiplates. Under low-light conditions, a 1:120 (v:v) dilution of AlphaScreen beads (both acceptor and donor):Surefire reaction buffer was prepared, which was mixed with the activation buffer in a ratio of 6:1 (v:v), respectively. Plates were incubated in the dark at 37° C. for 1 h before the fluorescence signal was measured by a Fusion-α plate reader (PerkinElmer Life and Analytical Sciences, Foster city, CA, USA) with standard AlphaScreen settings. Data were normalized to the maximal response elicited by 10% (v/v) FBS at the same time point.
(§4) Receptor mediated pERK1/2 levels were determined using the AlphaScreen™ ERK1/2 SureFire™ kit, as described previously (Keov, P et al., 2014). For all experiments, 10% FBS was used as internal positive control to stimulate pERK1/2, and which the maximum responses were used for normalization of data, whilst vehicle was used as negative control.
(§5) Data analysis: All data were analysed using GraphPad Prism 6.0 (GraphPad Software, San Deigo, Calif., USA). Where appropriate, concentration-response curves were fitted to derive the maximal agonist effect (Emax), and the ligand potency estimate (pEC50), where Emax is the maximal possible response of the system (not the agonist), basal is the basal level of response in the absence of agonist, and pEC50 is the negative logarithm of the agonist concentration that gives a response halfway between Emax and basal.
(§6) In the present study, FIp-IN CHO cells and Gateway plasmid were obtained from Invitrogen Inc (Carlsbad, Calif., USA). The sequences for all 3 known human FPRs (hFPR1, hFPR2 and hFPR3) were amplified by PCR and cloned into the Gateway entry vector, pDONR202TM, using the BP clonase enzyme mix, according to the manufacturers' instructions. The hFPR pDONR201TM constructs were subsequently transfected into the pEF5/FRT/V5/dest vector using the LR clonase enzyme mix (Invitrogen).
(Bead proximity is the source of the signal in Alpha formats.)

For another data set, the target named is T2, hFPR2 (Homo sapiens, UniProt P25090).
T2 construct: expressed in transfected cells
T2 sequence (P25090 1-351): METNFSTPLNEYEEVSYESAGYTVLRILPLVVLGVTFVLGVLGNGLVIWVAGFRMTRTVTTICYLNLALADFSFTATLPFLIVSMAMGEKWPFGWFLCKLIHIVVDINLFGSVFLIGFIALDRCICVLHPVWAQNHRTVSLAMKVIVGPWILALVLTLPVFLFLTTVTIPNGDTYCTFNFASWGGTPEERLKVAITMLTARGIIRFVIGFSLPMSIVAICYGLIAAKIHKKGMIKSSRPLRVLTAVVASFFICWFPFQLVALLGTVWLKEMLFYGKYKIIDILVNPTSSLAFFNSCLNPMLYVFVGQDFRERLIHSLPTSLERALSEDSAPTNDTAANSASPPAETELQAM
The experiment in a line: ERK1/2 phosphorylation (AlphaScreen SureFire) in hFPR2-FlpIn-CHO cells. It is filed as cell-based.
From the text: as §1, §2, §3, §4, §5, §6

The next data set concerns the target T3, hFPR3 (Homo sapiens, UniProt P25089).
T3 construct: expressed in transfected cells
T3 sequence (P25089 1-353): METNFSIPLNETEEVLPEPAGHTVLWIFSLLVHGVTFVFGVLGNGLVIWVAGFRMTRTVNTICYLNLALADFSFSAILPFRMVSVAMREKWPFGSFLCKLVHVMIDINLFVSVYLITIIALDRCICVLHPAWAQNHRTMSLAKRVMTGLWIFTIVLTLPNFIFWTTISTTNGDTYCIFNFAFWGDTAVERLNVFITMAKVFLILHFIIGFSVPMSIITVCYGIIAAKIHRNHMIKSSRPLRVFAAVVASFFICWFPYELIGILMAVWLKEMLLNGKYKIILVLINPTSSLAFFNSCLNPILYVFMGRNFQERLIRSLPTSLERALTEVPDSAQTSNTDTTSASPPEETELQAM
Description: Agonist responses (ERK1/2 phosphorylation) in hFPR3-CHO cells. The data set is classed as cell-based.
From the text: as §1, with “Cells were maintained and cultured in high glucose DMEM supplemented with 10% FBS, 16 mM HEPES and 500 μg/mL hydromycin at 37° C. under a humidified atmosphere containing 5% CO2.” left out
Measurement of extracellular signal regulated kinase 1 and 2 phosphorylation (pERK1/2): Initial ERK1/2 phosphorylation at Thr202/Tyr204 time-course experiments were performed to determine the time at which ERK1/2 phosphorylation was maximal after stimulation by each agonist. […] Plates were incubated in the dark at 37° C. for 1 h before the fluorescence signal was measured by a Fusion-α plate reader (PerkinElmer Life and Analytical Sciences, Foster city, CA, USA) with standard AlphaScreen settings. […]

The target in data set [2] is T1, hFPR1. The experiment in a line: [Ca2+]i mobilization in FlpIn-CHO cells stably expressing hFPR1. It is filed as cell-based. Also noted: Calcium Rmax: unit not given here.
From the text: as §1, §2
Intracellular calcium mobilization: Intracellular calcium mobilization was assayed as described previously (Keov, P et al., 2014). Briefly, cells were washed once using HEPES buffered saline (HBS) solution [150 mM NaCl, 2.2 mM CaCl2, 2.6 mM KCl, 1.2 mM MgCl2, 10 mM HEPEs, 10 mM D-Glucose, 0.5% (w/v) bovine serum albumin (BSA) and 4 mM probenecid] at pH 7.4, then treated with Fluo-4-AM (1 μM, in HBS/BSA/probenecid) for 60 min at 37° C. in 5% CO2 in the dark. Cells were then further washed and placed in HBS/BSA/probenecid solution for ligation addition and assay using the FLEXstation 3 plate reader (Molecular Devices, Sunnyvale, Calif.). For all experiments, peak change in fluorescence signal was normalized to the cellular response to 100 μM ATP, which was used as an internal positive control.
as §5
In the present study, FIp-IN CHO cells and Gateway plasmid were obtained from Invitrogen Inc (Carlsbad, Calif., USA). The sequences for all 3 known human FPRs (hFPR1, hFPR2 and hFPR3) were amplified by PCR and cloned into the Gateway entry vector, pDONR202TM, using the BP clonase enzyme mix, according to the manufacturers' instructions. The hFPR pDONR201TM constructs were subsequently transfected into the pEF5/FRT/V5/dest vector using the LR clonase enzyme mix (Invitrogen). Receptor constructs (pEF5/FRT/V5/dest) were used to transfect FIp-IN CHO cells, as described previously (Valant et al. 2014). Cells were selected using 500 μg/mL hydromycin to generate cell lines stably expressing each human receptor construct. Cells were maintained and cultured in high glucose Dulbecco's modified eagle medium (DMEM) supplemented with 10% fetal bovine serum (FBS, from JRH Biosciences, Lenexa, Kans., USA) and 500 μg/mL hydromycin B (Invitrogen Inc) at 37° C. under a humidified atmosphere containing 5% CO2. Cell were plated into 96-well transparent cell culture plates at 4×10^4 cells per well, cultured overnight in serum-free media at 37° C. in 5% CO2.
(ii) Intracellular Ca2+ mobilization: Intracellular Ca2+ mobilization was determined in stably-transfected recombinant hFPR CHO cells, as described previously (Valant et al. 2014).

Data set [3] has as its target T1, hFPR1. Description: Quantification of biased agonism (operational model) at hFPR1 in CHO cells. It is filed as cell-based. The settings on record: Table 9.
From the text: To quantify biased agonism mediated by each agonist across the various pathways ([Ca^2+], mobilization, pERK1/2, Akt1/2/3 and inhibition of cAMP accumulation), agonist concentration-response curves were refitted using the operation model normalized to the transduction ratio of a reference agonist (in this case, BIDI-002) as described previously (Stewart G D et al., 2009). Under these conditions, if the test agonist and the reference agonist activate the two pathways through a common receptor conformation, the log [bias factor] should be 0.0 (or bias factor different from 1.0), irrespective of differences in response amplification between pathways. In contrast, significant deviation of log [bias factor] from 0.0 (or bias factor different from 1.0) indicates the involvement of distinct conformations for the different agonists. All affinities, potencies, efficacies, and cooperativity parameters were estimated as logarithms (Christopoulos, 1998). Results are expressed as means±S.E. unless otherwise stated. Statistical analyses were by Student's t test, or one-way ANOVA followed by Dunnett's Comparison or Tukey's post-hoc test, as appropriate. Values of p<0.05 were considered statistically significant.
A “transduction ratio” is firstly derived for each response (τ/KA, where τ represents efficacy, and KA affinity, of the agonist for each GPCR conformational state), extracted from each concentration-response curve. “Bias factors” (ΔΔ(τ/KA)) were then calculated by normalizing the transduction ratio to a reference ligand (in this case, Cmpd43) and reference pathway, which here was Akt1/2/3(Thr308) phosphorylation. Lastly, bias factors were plotted on a ‘web of bias’ to visualize the potential for biased agonism. […] Under these conditions, if the test agonist and the reference agonist activate the two pathways through a common receptor conformation, the log [bias factor] should be 0.0 (i.e. the bias factor 1.0), irrespective of differences in response amplification between pathways. In contrast, significant deviation of log [bias factor] away from 0.0 (i.e. where the bias factor is different to 1.0) indicates the involvement of distinct conformations for the different agonists. All affinities, potencies, efficacies, and cooperativity parameters were estimated as logarithms (Kenakin et al. 2012).
Five signaling pathways were examined, namely pERK1/2-phosphorylation, Akt1/2/3(Ser473)-phosphorylation, Akt1(Thr308)-phosphorylation, increases in Ca2+i and inhibition of forskolin-induced cAMP accumulation. An operational model of agonism was fitted to each concentration-response curve to estimate a transduction ratio (τ/KA) for each agonist, at each pathway assessed, as described (FIG. 21B) (Kenakin et al. 2012). Transduction ratios were normalized to a reference agonist (Cmpd43) and a reference pathway (Akt1/2/3(Thr308)-phosphorylation), generating bias factors and therefore allowing quantitative cross-pathway comparison for each agonist.
Data set [4] can be described thus: Plasma levels and pharmacokinetics in mice. The settings on record: mouse, in vivo; Table 9; mice. It is filed as in vivo, mouse.

One may read the Tmax as the time at which the peak concentration occurs. As a reminder, the half-life is how long it takes for the measured level to halve.

Regarding `CCCCC[C@H](O)/C=C/C=C\C=C\C=C\[C@@H](O)[C@@H](O)CCCC(=O)O` [LxA4, lipoxin-A4], at hFPR1 [1], the “ERK-phosphorylation at hFPR1 (in words)” value is on record as “failed to stimulate; also recorded: without effect”. Also, at hFPR2, the “ERK-phosphorylation at hFPR2 (in words)” value is recorded as “failed to stimulate; also recorded: without effect”. Besides, the “Agonist response (ERK-phosphorylation) in hFPR3-CHO cells” value on hFPR3 is “failed to stimulate; also recorded: without effect”.
As for `COc1cccc(Cc2cc(C)nn(Cc3ccc(Cl)cc3)c2=O)c1OC` [MIPS-0010394], the EC50 was 407 nM at hFPR1 [2] (Table 9, read-out: potency (pEC50) Ca^2+i, hFPR1-FlpInCHO cells in vitro (converted)); 407 nM at hFPR1 [2] (Table 10, receptor not given, ND = Not detectable, read-out: Calcium pEC50 (converted)); 170 nM on hFPR1 [1] (Table 9, read-out: potency (pEC50) pERK1/2, hFPR1-FlpInCHO cells in vitro (converted)); 170 nM at hFPR1 [1] (Table 10, receptor not given, values of 10394/10396 equal the hFPR1 values of Table 9, read-out: ERK pEC50 (converted)). At hFPR1 [2] (Table 10, receptor not given, ND = Not detectable), the “Calcium Rmax” value turned out to be 38 ± 2. Further, on hFPR1 [1] (Table 10, receptor not given), the “ERK Rmax” value is 82 ± 5. For the same molecule, at hFPR1 [3], the “Bias (away from Ca2+i), hFPR1-FlpInCHO cells in vitro” value is recorded as “Slight”. Further, in data set [4], the Tmax worked out at 0.3 h. In addition, the half-life in data set [4] was 9.5 h.
